Laboratory results: ChEMBL document CHEMBL1201862, “PubChem BioAssay data set” (2004)
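Five compound concentrations were applied to cells in 96-well plates for 48 hours; endpoints were derived by simple linear interpolation of the resulting dose-response curve. GI50 is the concentration that inhibits growth by half.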 Activity calls are given as the source filed them. Rule as the data show it: active = GI50 up to about 1.1 µM and inactive = higher.

Tests used:
Experiment in all cases: inhibition of tumour cell growth, NCI panel, 48 h
CCRF-CEM = test system: CCRF-CEM
COLO 205 = test system: COLO 205
DU-145 = test system: DU-145
EKVX = test system: EKVX
HCC 2998 = test system: HCC 2998
MCF7 = test system: MCF7
NCI-H226 = test system: NCI-H226
NCI-H460 = test system: NCI-H460
NCI-H522 = test system: NCI-H522
OVCAR-4 = test system: OVCAR-4
PC-3 = test system: PC-3
RXF 393 = test system: RXF 393
SF-539 = test system: SF-539
SK-MEL-5 = test system: SK-MEL-5
SW-620 = test system: SW-620
T47D = test system: T47D
TK-10 = test system: TK-10
U-251 = test system: U-251
UACC-62 = test system: UACC-62

Row | SMILES | GI50 (CCRF-CEM) | GI50 (COLO 205) | GI50 (DU-145) | GI50 (EKVX) | GI50 (HCC 2998) | GI50 (MCF7) | GI50 (NCI-H226) | GI50 (NCI-H460) | GI50 (NCI-H522) | GI50 (OVCAR-4) | GI50 (PC-3) | GI50 (RXF 393) | GI50 (SF-539) | GI50 (SK-MEL-5) | GI50 (SW-620) | GI50 (T47D) | GI50 (TK-10) | GI50 (U-251) | GI50 (UACC-62)
1 | Cc1nc(N/N=C/c2ccccc2Cl)[nH]c(=O)c1CCO | > 100 µM (inactive) | > 100 µM (inactive) | > 100 µM (inactive) | 86.9 µM (inactive) | > 100 µM (inactive) | 36.2 µM (inactive) | > 100 µM (inactive) | 80 µM (inactive) | 17.9 µM (inactive) | 87.3 µM (inactive) | > 100 µM (inactive) | 25.9 µM (inactive) | 77.4 µM (inactive) | > 100 µM (inactive) | > 100 µM (inactive) | 24.8 µM (inactive) | 76 µM (inactive) | 49.3 µM (inactive) | 34.4 µM (inactive)
2 | Oc1cccc2cc(Cl)cnc12 | 2.45 µM (inactive) | 31.4 µM (inactive) | 31.5 µM (inactive) | 4.88 µM (inactive) | 27.1 µM (inactive) | 3.4 µM (inactive) | 27.4 µM (inactive) | 6.95 µM (inactive) | 2.75 µM (inactive) | 3.38 µM (inactive) | 10.6 µM (inactive) | 12.3 µM (inactive) | 10.3 µM (inactive) | 8.41 µM (inactive) | 7.18 µM (inactive) | 4.42 µM (inactive) | 39.5 µM (inactive) | 9.08 µM (inactive) | 5.51 µM (inactive)
3 | CCSC(=O)/C=C1\CN(C(=O)OC(C)(C)C)C1C(=O)OC(C)(C)C (configuration not stated) | 1.27 µM (inactive) | 2.02 µM (inactive) | 4.95 µM (inactive) | 10.5 µM (inactive) | 5.38 µM (inactive) | 2.38 µM (inactive) | 12.7 µM (inactive) | 7.14 µM (inactive) | 2.49 µM (inactive) | 2.38 µM (inactive) | 4.94 µM (inactive) | 1.91 µM (inactive) | 3.03 µM (inactive) | 3.37 µM (inactive) | 2.07 µM (inactive) | 4.34 µM (inactive) | 2.59 µM (inactive) | 6.19 µM (inactive) | 3.2 µM (inactive)
4 | COC(=O)C1CC2C=CC1N(C(=O)OCc1ccccc1)C2 (configuration not stated) | > 100 µM (inactive) | > 100 µM (inactive) | > 100 µM (inactive) | 91.4 µM (inactive) | > 100 µM (inactive) | 98.2 µM (inactive) | > 100 µM (inactive) | > 100 µM (inactive) | 0.82 µM (active) | > 100 µM (inactive) | > 100 µM (inactive) | > 100 µM (inactive) | > 100 µM (inactive) | 92 µM (inactive) | > 100 µM (inactive) | 85.7 µM (inactive) | > 100 µM (inactive) | > 100 µM (inactive) | > 100 µM (inactive)
5 | O=C(CSc1nc2ccc(I)cc2c(=O)n1Cc1ccccc1)NN1C(=O)CCC1=O | 34.5 µM (inactive) | 34 µM (inactive) | > 100 µM (inactive) | 34.1 µM (inactive) | 77.4 µM (inactive) | 41.5 µM (inactive) | 27.3 µM (inactive) | 63.8 µM (inactive) | 20.4 µM (inactive) | 21.5 µM (inactive) | 30.1 µM (inactive) | 25.5 µM (inactive) | 61.4 µM (inactive) | 48.4 µM (inactive) | 75.2 µM (inactive) | 40 µM (inactive) | 84.5 µM (inactive) | 41.2 µM (inactive) | 55.7 µM (inactive)
6 | COc1ccc(N2C(=O)C3c4[nH]c5ccc(OCc6ccccc6)cc5c4C4CCC(C(C)C)CC4C3C2=O)cc1 (configuration not stated) | 12.6 µM (inactive) | > 100 µM (inactive) | > 100 µM (inactive) | 11 µM (inactive) | > 100 µM (inactive) | 99.1 µM (inactive) | 14.2 µM (inactive) | 13.9 µM (inactive) | 12.3 µM (inactive) | 19.4 µM (inactive) | > 89.9 µM (inactive) | 13.4 µM (inactive) | 6.03 µM (inactive) | > 100 µM (inactive) | > 100 µM (inactive) | 33.2 µM (inactive) | > 30.3 µM (inactive) | 10.8 µM (inactive) | 29 µM (inactive)
7 | CC1=NN(C(=O)c2ccccc2O)C(c2ccccc2Cl)C1C(=O)Nc1ccccc1 (configuration not stated) | 0.0288 µM (active) | 5.26 µM (inactive) | < 0.0291 µM (active) | 1.7 µM (inactive) | 2.84 µM (inactive) | 0.0387 µM (active) | 0.0614 µM (active) | 0.0964 µM (active) | 0.119 µM (active) | 0.098 µM (active) | 1.75 µM (inactive) | 0.0553 µM (active) | < 0.0298 µM (active) | 0.167 µM (active) | 0.388 µM (active) | 0.0435 µM (active) | 3.1 µM (inactive) | < 0.0213 µM (active) | < 0.0197 µM (active)
8 | CCN(CCCN(CC)C(=O)Nc1ccccc1)C(=O)Nc1ccccc1 | > 100 µM (inactive) | > 100 µM (inactive) | > 100 µM (inactive) | > 100 µM (inactive) | > 100 µM (inactive) | > 100 µM (inactive) | > 100 µM (inactive) | > 100 µM (inactive) | > 100 µM (inactive) | > 100 µM (inactive) | > 100 µM (inactive) | > 100 µM (inactive) | > 100 µM (inactive) | > 100 µM (inactive) | > 100 µM (inactive) | > 100 µM (inactive) | > 100 µM (inactive) | > 100 µM (inactive) | > 100 µM (inactive)
9 | CC(=O)/C(=C(/Br)I)c1ccccc1 | 1.58 µM (inactive) | 13.6 µM (inactive) | 15.8 µM (inactive) | 12.6 µM (inactive) | 6.81 µM (inactive) | 6.47 µM (inactive) | 7.45 µM (inactive) | 20.3 µM (inactive) | 0.442 µM (active) | 12.5 µM (inactive) | 16.8 µM (inactive) | 3.36 µM (inactive) | 16.6 µM (inactive) | 7.71 µM (inactive) | 3.15 µM (inactive) | 3.48 µM (inactive) | 21 µM (inactive) | 13.1 µM (inactive) | 12.8 µM (inactive)
10 | COC(=O)c1ccc(CCc2cc(O)ccc2O)cc1 | 0.67 µM (active) | 23.9 µM (inactive) | 32.4 µM (inactive) | 13.3 µM (inactive) | 23.9 µM (inactive) | 7.5 µM (inactive) | 9.29 µM (inactive) | 37 µM (inactive) | 0.706 µM (active) | 10.8 µM (inactive) | 4.3 µM (inactive) | 7.89 µM (inactive) | 3.66 µM (inactive) | 10.2 µM (inactive) | 6.27 µM (inactive) | 2.6 µM (inactive) | 22.4 µM (inactive) | 7.46 µM (inactive) | 14.8 µM (inactive)
11 | CC1=NN(C(=O)CC(=O)N(C(=O)c2ccccc2)c2ccc(Cl)cc2)C(=O)C1/N=N/c1ccc([N+](=O)[O-])cc1 (configuration not stated) | > 10 µM (inactive) | > 10 µM (inactive) | > 10 µM (inactive) | > 10 µM (inactive) | > 10 µM (inactive) | > 10 µM (inactive) | > 10 µM (inactive) | > 10 µM (inactive) | > 10 µM (inactive) | > 10 µM (inactive) | > 10 µM (inactive) | > 10 µM (inactive) | > 10 µM (inactive) | > 10 µM (inactive) | > 10 µM (inactive) | > 10 µM (inactive) | > 10 µM (inactive) | > 10 µM (inactive) | > 10 µM (inactive)
12 | N/C(=N\O)N/N=C/c1ccc2c(c1)OCO2 | 19.4 µM (inactive) | 4.74 µM (inactive) | 7.16 µM (inactive) | 8.85 µM (inactive) | 35.6 µM (inactive) | 28.6 µM (inactive) | 10.8 µM (inactive) | 27 µM (inactive) | 38.5 µM (inactive) | 26.4 µM (inactive) | 26.2 µM (inactive) | 29 µM (inactive) | 27.7 µM (inactive) | 15.4 µM (inactive) | 63.4 µM (inactive) | 46 µM (inactive) | 55 µM (inactive) | 36.6 µM (inactive) | 13.5 µM (inactive)
13 | CC(=O)Nc1ccc(-c2nc3ccccc3s2)cc1I | > 100 µM (inactive) | 89.3 µM (inactive) | 11 µM (inactive) | 7.87 µM (inactive) | 0.488 µM (active) | 0.0463 µM (active) | 7.96 µM (inactive) | 49.4 µM (inactive) | 42.2 µM (inactive) | 8.79 µM (inactive) | 41.6 µM (inactive) | 14.8 µM (inactive) | 14.3 µM (inactive) | > 100 µM (inactive) | > 100 µM (inactive) | 1.85 µM (inactive) | – | 25.1 µM (inactive) | 22.6 µM (inactive)
14 | CC1=NN(c2nc(N)nc(-c3cc4ccccc4oc3=N)n2)C(C)(C)C1 | 20.7 µM (inactive) | 17 µM (inactive) | 20.9 µM (inactive) | 14.7 µM (inactive) | 15 µM (inactive) | 27.7 µM (inactive) | 14.7 µM (inactive) | 17.3 µM (inactive) | 20.6 µM (inactive) | 17.4 µM (inactive) | 17.1 µM (inactive) | 20.7 µM (inactive) | 19.5 µM (inactive) | 16.8 µM (inactive) | – | 16.1 µM (inactive) | 23.4 µM (inactive) | 27 µM (inactive) | 16.2 µM (inactive)
15 | Cc1ccc(C2SCC(=O)N2NC(=O)c2ccncc2)s1 (configuration not stated) | > 100 µM (inactive) | > 100 µM (inactive) | > 100 µM (inactive) | > 100 µM (inactive) | > 100 µM (inactive) | > 100 µM (inactive) | > 100 µM (inactive) | – | > 100 µM (inactive) | > 100 µM (inactive) | > 100 µM (inactive) | > 100 µM (inactive) | > 100 µM (inactive) | > 100 µM (inactive) | > 100 µM (inactive) | > 100 µM (inactive) | > 100 µM (inactive) | > 100 µM (inactive) | > 100 µM (inactive)
